Reference: article PMC11466185, “Mechanisms and efficacy of small molecule latency-promoting agents to inhibit HIV reactivation ex vivo” (JCI Insight, 2024)

Columns and labels:
[1] = test system: HIV transcripts (TAR, LLTR, Pol, PolyA, TatRev); test: Baseline HIV transcription without activation, PBMCs from ART-suppressed PWH, 24 hours; type: cell-based; conditions: no activation; for HIV splicing (TatRev/PolyA) without activation: not statistically significant; for LLTR HIV transcripts (DMSO = 100) / Pol HIV transcripts (DMSO = 100) / PolyA HIV transcripts (DMSO = 100) / Tat-Rev HIV transcripts (DMSO = 100) / TAR HIV transcripts (DMSO = 100) / PolyA/LLTR ratio (DMSO = 1) / TatRev/PolyA ratio (DMSO = 1) / LLTR/TAR ratio (DMSO = 1): ruxolitinib 4μM, dinaciclib 8nM, AZD4573 8nM, KRIBB11 2.5μM; for LLTR HIV transcripts (DMSO = 100) / Pol HIV transcripts (DMSO = 100) / PolyA HIV transcripts (DMSO = 100) / Tat-Rev HIV transcripts (DMSO = 100) / TAR HIV transcripts (DMSO = 100): pladienolide B 10nM; for PolyA/LLTR ratio (DMSO = 1) / TatRev/PolyA ratio (DMSO = 1) / LLTR/TAR ratio (DMSO = 1): pladienolide B
Protocol: For a selection of the compounds, we evaluated the ability to reduce baseline HIV transcription without activation. PBMCs were cultured in the presence of individual drugs in DMSO or DMSO alone as a control and harvested after 24 hours. For each drug, we tested PBMCs from at least 3 PWH, as indicated in Supplemental Figure 5B. […] Likewise, pladienolide B appeared to reduce the level of multiply spliced transcripts (33%, Supplemental Figure 5, A and B).
PBMCs were isolated from fresh venous blood from 16 ART-suppressed HIV-infected study participants using Ficoll density gradient centrifugation. The cells were seeded at 6 × 10^6 cells/well and cultured with antiretrovirals (nevirapine and indinavir) to prevent new infection. On the next day, PBMCs were activated with anti-CD3/CD28–coated beads (Invitrogen) in the presence of 20 U/mL IL-2 and individual drugs in DMSO or DMSO alone as a control. Since we were limited in the PBMC yield per study participant, different study participants were used for different experiments (such as the initial screen, dose response, different time points, and studies in activated vs. unstimulated cells). In addition, the yields of PBMCs were sometimes insufficient to test all drugs for a given question or experiment.
Total cellular DNA and RNA were extracted in parallel using Trireagent (Molecular Research Center) according to the manufacturer’s instructions, except for study participants 2147 and 2461 (Figure 4), for whom DNA and RNA were extracted using the QIAGEN AllPrep DNA/RNA/miRNA Universal Kit with on-column DNase I treatment of the RNA and the manufacturer’s modification to enhance recovery of short transcripts. RNA and DNA concentrations were measured using UV spectrophotometry (NanoDrop One, Thermo Fisher Scientific). Total initiated HIV (TAR) transcripts were quantified by a 3-step polyadenylation RT-ddPCR as described previously ([8], [84]). HIV 5′ elongated (LLTR), midtranscribed (Pol), completed (PolyA), and multiply spliced (TatRev) transcripts were quantified by a 2-step RT-ddPCR as previously described ([8]). The levels of each HIV transcript were normalized to 1 μg of total cellular RNA and expressed as a percentage of the (activated) DMSO control. To quantify virion-associated RNA in supernatant, RNA was extracted from 400 μL supernatant using Trireagent-LS (Molecular Research Center) according to the manufacturer’s instructions. Levels of U3-polyadenylated HIV RNA were measured in the supernatant by RT-ddPCR, normalized to copies/mL, and expressed as a percentage of the activated DMSO. For measuring the HIV infection frequency at day 6, the HIV DNA U3-U5 LTR region was quantified by using ddPCR as described previously ([8]). HIV DNA copies were normalized to cell numbers according to the mass of DNA input per well (calculated from the DNA concentration and input volume) ([85]).
Figure S5. CDK-inhibitors appear to decrease baseline HIV splicing even in the absence of T cell activation. Each drug was tested in PBMCs from at least three ART-suppressed study participants and PBMCs were aliquoted into wells at 6x10^6 cells/well. The cells were cultured with antiretrovirals but without activation in the presence of individual drugs in (1 picture or pasted object on this page, not shown here)
DMSO or DMSO alone as control. After 24h, total RNA was extracted and the progression through different stages of HIV transcription was quantified by measuring the levels of initiated (TAR), 5’ elongated (LLTR), mid-transcribed/unspliced (Pol), completed (PolyA) and multiply spliced (TatRev) HIV transcripts. A-B) The levels of all HIV transcripts were quantified, normalized to 1 µg of total cellular RNA, and expressed as a percent of the DMSO control (% of DMSO). A) Medians are shown, as well as the values of the individual study participants in different colors. B) The medians from panel A) are presented. The effect of each drug on the different transcripts was studied in three to six study participants, as […]

PBMCs = test: Total number of live cells (proliferation) by trypan blue staining at day 6; type: cell-based, human; conditions: day 6; Figure 6A
Protocol: Some of our candidate LPAs can block the effects of T cell activation, which could affect T cell proliferation. Therefore, we evaluated the extent to which variations in the level of infected cells may contribute to reductions in different HIV RNA transcripts. We measured the total number of viable cells (as a measure of proliferation) and the conserved U3-U5 LTR HIV DNA region (as a measure of total infection frequency) at day 6.
(A) After 6 days, the total number of live cells was measured by trypan blue staining and then normalized to the levels of the activated DMSO (% of activated DMSO). All conditions were tested in the presence of CD3^+/CD28^+ T cell–activating beads, except for the unactivated DMSO condition. Bars indicate medians, and different colors indicate individual study participants. Comparisons were performed using Wilcoxon’s signed-rank test. (B) Total cellular DNA was extracted, and the levels of U3-U5 HIV DNA were measured to quantify infection frequency at 6 days. HIV DNA levels were normalized to copies per 10^6 cells using the input of cellular DNA (assuming 1 μg of total DNA corresponds to 160,000 cells) and then normalized to the activated DMSO control (% of activated DMSO). Bars indicate medians, and different colors indicate individual study participants.

[2] = participant 5557 (DMSO cell empty)

CCc1cnn2c(NCc3ccc[n+]([O-])c3)cc(N3CCCC[C@H]3CCO)nc12 [dinaciclib]
5′ elongated HIV transcripts without activation compared to DMSO ([1]; 24 hours): did not reduce
Completed HIV transcripts without activation compared to DMSO ([1]; 24 hours): did not reduce
HIV splicing (TatRev/PolyA) without activation ([1]; 24 hours): severely reduce
LLTR HIV transcripts (DMSO = 100) ([1]; participant 156): 121.36
Pol HIV transcripts (DMSO = 100) ([1]; participant 156): 49.08
PolyA HIV transcripts (DMSO = 100) ([1]; participant 156): 67.47
Tat-Rev HIV transcripts (DMSO = 100) ([1]; participant 156): 0
LLTR HIV transcripts (DMSO = 100) ([1]; participant 163): 142.94
Pol HIV transcripts (DMSO = 100) ([1]; participant 163): 207.39
PolyA HIV transcripts (DMSO = 100) ([1]; participant 163): 173.7
Tat-Rev HIV transcripts (DMSO = 100) ([1]; participant 163): 0
LLTR HIV transcripts (DMSO = 100) ([1]; participant 1379): 40.3
Pol HIV transcripts (DMSO = 100) ([1]; participant 1379): 0
PolyA HIV transcripts (DMSO = 100) ([1]; participant 1379): 20.95
TAR HIV transcripts (DMSO = 100) ([1]; participant 1379): 228.89
LLTR HIV transcripts (DMSO = 100) ([1]; participant 2027): 82.61
Pol HIV transcripts (DMSO = 100) ([1]; participant 2027): 131.38
PolyA HIV transcripts (DMSO = 100) ([1]; participant 2027): 193.29
TAR HIV transcripts (DMSO = 100) ([1]; participant 2027): 248.84
LLTR HIV transcripts (DMSO = 100) ([1]; participant 2750): 83.98
Pol HIV transcripts (DMSO = 100) ([1]; participant 2750): 102.74
PolyA HIV transcripts (DMSO = 100) ([1]; participant 2750): 91.99
TAR HIV transcripts (DMSO = 100) ([1]; participant 2750): 108.94
Tat-Rev HIV transcripts (DMSO = 100) ([1]; participant 2750): 0
LLTR HIV transcripts (DMSO = 100) [1, 2]: 59.59
Pol HIV transcripts (DMSO = 100) [1, 2]: 0
TAR HIV transcripts (DMSO = 100) ([1]; participant 5557): 176.06

O=c1c(O)c(-c2ccc(O)c(O)c2)oc2cc(O)cc(O)c12 [quercetin]
Total live cell numbers (proliferation) compared with activated DMSO (in words) (PBMCs): did not change proliferation rates

mithramycin A
Total live cell numbers (proliferation) compared with activated DMSO (in words) (PBMCs): significantly lower

C=CCNC1=C2C[C@@H](C)C[C@H](OC)[C@H](O)[C@@H](C)/C=C(\C)[C@H](OC(N)=O)[C@@H](OC)/C=C\C=C(/C)C(=O)NC(=CC1=O)C2=O [tanespimycin]
Total live cell numbers (proliferation) compared with activated DMSO (in words) (PBMCs): significantly lower

CC(C)[C@]12O[C@H]1[C@@H]1O[C@]13[C@]1(O[C@H]1C[C@H]1C4=C(CC[C@@]13C)C(=O)OC4)[C@@H]2O [triptolide]
Total live cell numbers (proliferation) compared with activated DMSO (in words) (PBMCs): significantly lower

CC(=O)N[C@@H]1CCC[C@H](C(=O)Nc2cc(-c3cnn4c3CC(C)(C)C4)c(Cl)cn2)C1 [AZD4573]
5′ elongated HIV transcripts without activation compared to DMSO ([1]; 24 hours): did not reduce
Completed HIV transcripts without activation compared to DMSO ([1]; 24 hours): did not reduce
Multiply spliced HIV transcripts without activation, median relative to DMSO ([1]; 24 hours, at least 3 PWH): 0%
HIV splicing (TatRev/PolyA) without activation ([1]; 24 hours): severely reduce
LLTR HIV transcripts (DMSO = 100) ([1]; participant 156): 37.81
Pol HIV transcripts (DMSO = 100) ([1]; participant 156): 28.11
PolyA HIV transcripts (DMSO = 100) ([1]; participant 156): 93.77
Tat-Rev HIV transcripts (DMSO = 100) ([1]; participant 156): 0
PolyA/LLTR ratio (DMSO = 1) ([1]; participant 156): 2.48
TatRev/PolyA ratio (DMSO = 1) ([1]; participant 156): 0
LLTR HIV transcripts (DMSO = 100) ([1]; participant 163): 69.35
Pol HIV transcripts (DMSO = 100) ([1]; participant 163): 112.58
PolyA HIV transcripts (DMSO = 100) ([1]; participant 163): 122.94
Tat-Rev HIV transcripts (DMSO = 100) ([1]; participant 163): 0
PolyA/LLTR ratio (DMSO = 1) ([1]; participant 163): 1.773
TatRev/PolyA ratio (DMSO = 1) ([1]; participant 163): 0
LLTR HIV transcripts (DMSO = 100) ([1]; participant 1379): 41.73
Pol HIV transcripts (DMSO = 100) ([1]; participant 1379): 110.74
PolyA HIV transcripts (DMSO = 100) ([1]; participant 1379): 43.19
TAR HIV transcripts (DMSO = 100) ([1]; participant 1379): 286.67
LLTR/TAR ratio (DMSO = 1) ([1]; participant 1379): 0.1456
PolyA/LLTR ratio (DMSO = 1) ([1]; participant 1379): 1.035
LLTR HIV transcripts (DMSO = 100) ([1]; participant 2027): 76.52
Pol HIV transcripts (DMSO = 100) ([1]; participant 2027): 30.35
PolyA HIV transcripts (DMSO = 100) ([1]; participant 2027): 87.13
TAR HIV transcripts (DMSO = 100) ([1]; participant 2027): 211.63
LLTR/TAR ratio (DMSO = 1) ([1]; participant 2027): 0.3616
PolyA/LLTR ratio (DMSO = 1) ([1]; participant 2027): 1.1386
LLTR HIV transcripts (DMSO = 100) ([1]; participant 2750): 134.54
Pol HIV transcripts (DMSO = 100) ([1]; participant 2750): 202.4
PolyA HIV transcripts (DMSO = 100) ([1]; participant 2750): 70.63
TAR HIV transcripts (DMSO = 100) ([1]; participant 2750): 206.7
Tat-Rev HIV transcripts (DMSO = 100) ([1]; participant 2750): 0
LLTR/TAR ratio (DMSO = 1) ([1]; participant 2750): 0.6509
PolyA/LLTR ratio (DMSO = 1) ([1]; participant 2750): 0.525
TatRev/PolyA ratio (DMSO = 1) ([1]; participant 2750): 0
LLTR HIV transcripts (DMSO = 100) [1, 2]: 170.71
Pol HIV transcripts (DMSO = 100) [1, 2]: 0
TAR HIV transcripts (DMSO = 100) ([1]; participant 5557): 348.03
LLTR/TAR ratio (DMSO = 1) ([1]; participant 5557): 0.57

COc1ccc(-c2cc(=O)c3c(O)cc(O)c(-c4cc(-c5cc(=O)c6c(O)cc(O)cc6o5)ccc4OC)c3o2)cc1 [isoginkgetin]
Total live cell numbers (proliferation) compared with activated DMSO (in words) (PBMCs): significantly lower
